We go through two molecules from patent publication US20240092772A1, “CRYSTALLINE FORM OF A PIPERAZINYL-THIAZOLE DERIVATIVE” (Idorsia Pharmaceuticals Ltd, priority 2021, published 2024).

A short description of data set [1]: Solid-state stability of crystalline form 3 on isolation/drying (XRPD). Format: physicochemical. As to conditions: isolation by filter centrifugation or drying under reduced pressure; transforms to crystalline form 1. On the procedure: In another experiment 0.04 mL of MeCN is added to 20 mg of COMPOUND (e.g. as obtained from Example 1) in a standard glass HPLC vial, and the suspension in the closed vial is submitted to a temperature variation cycle while being stirred with a magnetic stirring bar. Temperature cycling (repetition of heating 20° C. to 40° C. in 1 hour and cooling 40° C. to 20° C. in 4 hours) and stirring for 25 hours is done in a Polar Bear device (Cambridge reactor design, UK) The obtained solid, when analyzed without drying, is COMPOUND in crystalline form 3.
Form 3 is observed by XRPD when measured still in presence of sufficient MeCN. Isolation by filter centrifugation or isolation and drying under reduced pressure leads to the transformation of crystalline form 3 to crystalline form 1, pointing to the metastable nature of form 3 in absence of sufficient MeCN.

Data set [2] in a line: Gravimetric vapor sorption (GVS), hygroscopicity determination. Format: physicochemical. The following applies: 25° C.; variation in mass between 40% and 80% RH in first sorption scan; classification in analogy to Ph. Eur. 10.0, section 5.11. On the procedure: Gravimetric Vapor Sorption (GVS) Moisture sorption isotherm was collected on a dynamic vapor sorption analyzer IGASORP HAS-036-080 from Hiden Isochema operated with Isochema HIsorp 2019 software version 4.02.0070. Typically, about 30 mg of a sample is placed in the sample holder and is submitted to a stepwise equilibration at defined relative humidity (RH) setpoints at 25° C. The sample mass is recorded at these setpoints and are used to build the moisture sorption isotherm. The relative humidity setpoints used were 40% to 0% RH followed by 0% to 95% RH in 5% RH intervals. Data shown consist of the moisture sorption isotherm in the range 5% to 90% of the sample submitted to the increasing relative humidity. The variation in mass between 40% relative humidity and 80% relative humidity in the first sorption scan is evaluated for the hygroscopicity determination. The classification is done in analogy to the European Pharmacopeia (Ph. Eur.) 10.0, section 5.11.

Regarding `Cc1ncn(CC(=O)N2CCN(c3sc(C(F)(F)F)nc3-c3cnc(C(F)(F)F)nc3)C[C@H]2CCO)n1` [crystalline form 3, 1-{(R)-2-(2-Hydroxy-ethyl)-4-[2-trifluoromethyl-4-(2-trifluoromethyl-pyrimidin-5-yl)-thiazol-5-yl]-piperazin-1-yl}-2-(3-methyl-[1,2,4]triazol-1-yl)-ethanone], the “Stability of the crystalline form in absence of sufficient MeCN” value in data set [1] was “metastable”. Take `Cc1ncn(CC(=O)N2CCN(c3sc(C(F)(F)F)nc3-c3cnc(C(F)(F)F)nc3)C[C@H]2CCO)n1` [COMPOUND in crystalline form 1, 1-{(R)-2-(2-Hydroxy-ethyl)-4-[2-trifluoromethyl-4-(2-trifluoromethyl-pyrimidin-5-yl)-thiazol-5-yl]-piperazin-1-yl}-2-(3-methyl-[1,2,4]triazol-1-yl)-ethanone]: the “GVS (hygroscopicity)” value in data set [2] was “Not hygroscopic”.
